Test results taken from ChEMBL document CHEMBL1130436, “Synthesis and opioid activity of conformationally constrained dynorphin A analogues. 2. Conformational constraint in the "address" sequence” (J Med Chem, 1997).
Blank lines part the entries; values can stand above or below the molecule they belong to.

What was measured:
Mu-type opioid receptor [1] = target: T1, Mu-type opioid receptor (Cavia porcellus, UniProt P97266); test: Binding affinity to Opioid receptor mu 1 by competitive inhibition of radioligand [3H]DAMGO using cloned receptors transiently expressed on CHO cells; format: cell-based
[2] = target: T2, Delta-type opioid receptor (Homo sapiens, UniProt P41143); test: Binding affinity to Opioid receptor delta 1 by competitive inhibition of radioligand [3H]DPDPE using cloned receptors transiently expressed on CHO cells; format: cell-based, Cavia porcellus
[3] = target: T3, Kappa-type opioid receptor (Cavia porcellus, UniProt P41144); test: Binding affinity to Opioid receptor kappa 1 by competitive inhibition of radioligand [3H]diprenorphine using cloned receptors transiently expressed on CHO cells; format: cell-based
Cavia porcellus = species on record: Cavia porcellus; test: Opioid activity in guinea pig ileum; format: functional
[4] = target: T3, Kappa-type opioid receptor; test: Binding affinity of compound was measured on Opioid receptor kappa 1 by competitive inhibition of radioligand [3H]diprenorphine using cloned receptors transiently expressed on COS-7 (monkey kidney) cells; format: cell-based
[5] = target: T2, Delta-type opioid receptor; test: Binding affinity of compound was measured on Opioid receptor delta 1 by competitive inhibition of radioligand [3H]DPDPE using cloned receptors transiently expressed on COS-7 (monkey kidney) cells; format: cell-based
Mu-type opioid receptor [6] = target: T1, Mu-type opioid receptor; test: Binding affinity of compound was measured on Opioid receptor mu 1 by competitive inhibition of radioligand [3H]DAMGO using cloned receptors transiently expressed on COS-7 (monkey kidney) cells; format: cell-based

Compound: CC(C)C[C@H](NC(=O)[C@H](CCCCN)NC(=O)[C@@H]1CCCN1C(=O)[C@H](CCCNC(=N)N)NC(=O)[C@@H]1CNC(=O)C[C@@H](NC(=O)[C@H](Cc2ccccc2)NC(=O)CNC(=O)CNC(=O)[C@@H](N)Cc2ccc(O)cc2)C(=O)N[C@@H](CCCNC(=N)N)C(=O)N[C@@H](CCCNC(=N)N)C(=O)N1)C(=O)N[C@@H](CCCCN)C(N)=O
Ki (Mu-type opioid receptor [1]): 75 nM
Ki [2]: 3300 nM
Ki [3]: 8 nM

IC50 (Cavia porcellus): 22 nM
Compound: CC[C@H](C)[C@@H]1NC(=O)[C@H](CCCN=C(N)N)NC(=O)[C@H](NC(=O)[C@H](CC(C)C)NC(=O)[C@H](Cc2ccccc2)NC(=O)CNC(=O)CNC(=O)[C@@H](N)Cc2ccc(O)cc2)CC(=O)N[C@H](C(=O)N2CCC[C@H]2C(=O)N[C@@H](CCCCN)C(=O)N[C@@H](CC(C)C)C(=O)N[C@@H](CCCCN)C(=O)O)CCNC1=O

Compound: CC(C)C[C@H](NC(=O)[C@H](CCCCN)NC(=O)[C@@H]1CCCN1C(=O)[C@H](CCCNC(=N)N)NC(=O)[C@@H]1CCCNC(=O)C[C@@H](NC(=O)[C@H](Cc2ccccc2)NC(=O)CNC(=O)CNC(=O)[C@@H](N)Cc2ccc(O)cc2)C(=O)N[C@@H](CCCNC(=N)N)C(=O)N[C@@H](CCCNC(=N)N)C(=O)N1)C(=O)N[C@@H](CCCCN)C(N)=O
Ki (Mu-type opioid receptor [1]): 62 nM
Ki [2]: 1900 nM
Ki [3]: 12 nM

Compound: CC[C@H](C)[C@@H]1NC(=O)[C@H](CCCNC(=N)N)NC(=O)[C@H](NC(=O)[C@H](CC(C)C)NC(=O)[C@H](Cc2ccccc2)NC(=O)CNC(=O)CNC(=O)[C@@H](N)Cc2ccc(O)cc2)CC(=O)NCCC[C@@H](C(=O)N2CCC[C@H]2C(=O)N[C@@H](CCCCN)C(=O)N[C@@H](CC(C)C)C(=O)N[C@@H](CCCCN)C(N)=O)NC1=O
Ki (Mu-type opioid receptor [1]): 3.2 nM
Ki [2]: 28 nM
IC50 (Cavia porcellus): 6.8 nM
Ki [3]: 1.5 nM

Compound: CC[C@H](C)[C@H](NC(=O)[C@H](CCCNC(=N)N)NC(=O)[C@H](CCCNC(=N)N)NC(=O)[C@H](CC(C)C)NC(=O)[C@H](Cc1ccccc1)NC(=O)[C@@H](CC(=O)O)NC(=O)CNC(=O)[C@@H](N)Cc1ccc(O)cc1)C(=O)N[C@@H](CCCNC(=N)N)C(=O)N1CCC[C@H]1C(=O)N[C@@H](CCCCN)C(=O)N[C@@H](CC(C)C)C(=O)N[C@@H](CCCCN)C(N)=O
Ki (Mu-type opioid receptor [1]): 180 nM
Ki [2]: 430 nM
IC50 (Cavia porcellus): 440 nM
Ki [3]: 28 nM

IC50 (Cavia porcellus): 1400 nM
Compound: CC[C@H](C)[C@H](NC(=O)[C@H](CCCNC(=N)N)NC(=O)[C@H](CCCNC(=N)N)NC(=O)[C@@H](CC(=O)O)NC(=O)[C@H](Cc1ccccc1)NC(=O)CNC(=O)CNC(=O)[C@@H](N)Cc1ccc(O)cc1)C(=O)N[C@@H](CCCNC(=N)N)C(=O)N1CCC[C@H]1C(=O)N[C@@H](CCCCN)C(=O)N[C@@H](CC(C)C)C(=O)N[C@@H](CCCCN)C(=O)O

Compound: CC[C@H](C)[C@H](NC(=O)[C@H](CCCNC(=N)N)NC(=O)[C@@H]1CNC(=O)C[C@@H](NC(=O)CNC(=O)[C@@H](N)Cc2ccc(O)cc2)C(=O)N[C@@H](Cc2ccccc2)C(=O)N[C@@H](CC(C)C)C(=O)N1)C(=O)N[C@@H](CCCNC(=N)N)C(=O)N1CCC[C@H]1C(=O)N[C@@H](CCCCN)C(=O)N[C@@H](CC(C)C)C(=O)N[C@@H](CCCCN)C(N)=O
Ki [4]: 480 nM
Ki [5]: 2800 nM
IC50 (Cavia porcellus): 1000 nM
Ki (Mu-type opioid receptor [6]): 910 nM

Compound: CC[C@H](C)[C@H](NC(=O)[C@H](CCCNC(=N)N)NC(=O)[C@@H](CC(=O)O)NC(=O)[C@H](CC(C)C)NC(=O)[C@H](Cc1ccccc1)NC(=O)CNC(=O)CNC(=O)[C@@H](N)Cc1ccc(O)cc1)C(=O)N[C@@H](CN)C(=O)N1CCC[C@H]1C(=O)N[C@@H](CCCCN)C(=O)N[C@@H](CC(C)C)C(=O)N[C@@H](CCCCN)C(N)=O
Ki (Mu-type opioid receptor [1]; cho): 1.5 nM
Ki ([2]; cho): 8.2 nM
IC50 (Cavia porcellus): 74 nM
Ki ([3]; cho): 12 nM

Compound: CC(C)C[C@H](NC(=O)[C@H](CCCCN)NC(=O)[C@@H]1CCCN1C(=O)[C@H](CCCNC(=N)N)NC(=O)[C@@H]1CCNC(=O)C[C@@H](NC(=O)[C@H](Cc2ccccc2)NC(=O)CNC(=O)CNC(=O)[C@@H](N)Cc2ccc(O)cc2)C(=O)N[C@@H](CCCNC(=N)N)C(=O)N[C@@H](CCCNC(=N)N)C(=O)N1)C(=O)N[C@@H](CCCCN)C(N)=O
Ki (Mu-type opioid receptor [1]): 40 nM
Ki [2]: 4100 nM
Ki [3]: 14 nM

IC50 (Cavia porcellus): 46 nM
Compound: CC[C@H](C)[C@@H]1NC(=O)[C@H](CCCN=C(N)N)NC(=O)[C@H](NC(=O)[C@H](CC(C)C)NC(=O)[C@H](Cc2ccccc2)NC(=O)CNC(=O)CNC(=O)[C@@H](N)Cc2ccc(O)cc2)CC(=O)N[C@H](C(=O)N2CCC[C@H]2C(=O)N[C@@H](CCCCN)C(=O)N[C@@H](CC(C)C)C(=O)N[C@@H](CCCCN)C(=O)O)CNC1=O

Compound: CC[C@H](C)[C@H](NC(=O)[C@H](CCCNC(=N)N)NC(=O)[C@H](CCCNC(=N)N)NC(=O)[C@H](CC(C)C)NC(=O)[C@H](Cc1ccccc1)NC(=O)CNC(=O)CNC(=O)[C@@H](N)Cc1ccc(O)cc1)C(=O)N[C@@H](CCCNC(=N)N)C(=O)N1CCC[C@H]1C(=O)N[C@@H](CCCCN)C(=O)N[C@@H](CC(C)C)C(=O)N[C@@H](CCCCN)C(=O)O [ANALOG OF DYNORPHIN A]
Ki (Mu-type opioid receptor [1]): 0.92 nM
Ki [2]: 28.4 nM
IC50 (Cavia porcellus): 0.19 nM
Ki [3]: 0.31 nM

Compound: CC[C@H](C)[C@H](NC(=O)[C@H](CCCNC(=N)N)NC(=O)[C@H](CN)NC(=O)[C@H](CC(C)C)NC(=O)[C@H](Cc1ccccc1)NC(=O)[C@@H](CC(=O)O)NC(=O)CNC(=O)[C@@H](N)Cc1ccc(O)cc1)C(=O)N[C@@H](CCCNC(=N)N)C(=O)N1CCC[C@H]1C(=O)N[C@@H](CCCCN)C(=O)N[C@@H](CC(C)C)C(=O)N[C@@H](CCCCN)C(N)=O
Ki ([4]; cos-7): 300 nM
Ki ([5]; cos-7): 1300 nM
IC50 (Cavia porcellus): 2800 nM
Ki (Mu-type opioid receptor [6]; cos-7): 100 nM

Compound: CC[C@H](C)[C@@H]1NC(=O)[C@H](CCCNC(=N)N)NC(=O)[C@H](NC(=O)[C@H](CC(C)C)NC(=O)[C@H](Cc2ccccc2)NC(=O)CNC(=O)CNC(=O)[C@@H](N)Cc2ccc(O)cc2)CC(=O)NCC[C@@H](C(=O)N2CCC[C@H]2C(=O)N[C@@H](CCCCN)C(=O)N[C@@H](CC(C)C)C(=O)N[C@@H](CCCCN)C(N)=O)NC1=O
Ki (Mu-type opioid receptor [1]): 4.8 nM
Ki [2]: 180 nM
Ki [3]: 2.5 nM

IC50 (Cavia porcellus): 1300 nM
Compound: CC(C)C[C@H](NC(=O)[C@H](CCCCN)NC(=O)[C@@H]1CCCN1C(=O)[C@H](CCCN=C(N)N)NC(=O)[C@@H]1CCNC(=O)[C@H](CCCN=C(N)N)NC(=O)[C@H](CCCN=C(N)N)NC(=O)[C@H](NC(=O)[C@H](Cc2ccccc2)NC(=O)CNC(=O)CNC(=O)[C@@H](N)Cc2ccc(O)cc2)CC(=O)N1)C(=O)N[C@@H](CCCCN)C(=O)O

Compound: CC[C@H](C)[C@H](NC(=O)[C@H](CCCNC(=N)N)NC(=O)[C@H](CCCNC(=N)N)NC(=O)[C@@H](CC(=O)O)NC(=O)[C@H](Cc1ccccc1)NC(=O)CNC(=O)CNC(=O)[C@@H](N)Cc1ccc(O)cc1)C(=O)N[C@@H](CCCNC(=N)N)C(=O)N1CCC[C@H]1C(=O)N[C@@H](CCCCN)C(=O)N[C@@H](CC(C)C)C(=O)N[C@@H](CCCCN)C(N)=O
Ki (Mu-type opioid receptor [1]): 6.1 nM
Ki [2]: 1300 nM
Ki [3]: 58 nM

Compound: CC[C@H](C)[C@H](NC(=O)[C@H](CCCNC(=N)N)NC(=O)[C@@H]1CCNC(=O)C[C@@H](NC(=O)CNC(=O)[C@@H](N)Cc2ccc(O)cc2)C(=O)N[C@@H](Cc2ccccc2)C(=O)N[C@@H](CC(C)C)C(=O)N1)C(=O)N[C@@H](CCCNC(=N)N)C(=O)N1CCC[C@H]1C(=O)N[C@@H](CCCCN)C(=O)N[C@@H](CC(C)C)C(=O)N[C@@H](CCCCN)C(N)=O
Ki [4]: 270 nM
Ki [5]: 1000 nM
IC50 (Cavia porcellus): 880 nM
Ki (Mu-type opioid receptor [6]): 210 nM

Compound: CC[C@H](C)[C@H](NC(=O)[C@H](CCCNC(=N)N)NC(=O)[C@@H](CC(=O)O)NC(=O)[C@H](CC(C)C)NC(=O)[C@H](Cc1ccccc1)NC(=O)CNC(=O)CNC(=O)[C@@H](N)Cc1ccc(O)cc1)C(=O)N[C@@H](CCCNC(=N)N)C(=O)N1CCC[C@H]1C(=O)N[C@@H](CCCCN)C(=O)N[C@@H](CC(C)C)C(=O)N[C@@H](CCCCN)C(N)=O
Ki (Mu-type opioid receptor [1]): 1.2 nM
Ki [2]: 22 nM
IC50 (Cavia porcellus): 29 nM
Ki [3]: 8 nM

Compound: CC[C@H](C)[C@@H]1NC(=O)[C@H](CCCNC(=N)N)NC(=O)[C@H](NC(=O)[C@H](CC(C)C)NC(=O)[C@H](Cc2ccccc2)NC(=O)CNC(=O)CNC(=O)[C@@H](N)Cc2ccc(O)cc2)CC(=O)NC[C@@H](C(=O)N2CCC[C@H]2C(=O)N[C@@H](CCCCN)C(=O)N[C@@H](CC(C)C)C(=O)N[C@@H](CCCCN)C(N)=O)NC1=O
Ki (Mu-type opioid receptor [1]; cho): 4.4 nM
Ki ([2]; cho): 48 nM
Ki ([3]; cho): 2.6 nM

IC50 (Cavia porcellus): > 5000 nM
Compound: CC(C)C[C@H](NC(=O)[C@H](CCCCN)NC(=O)[C@@H]1CCCN1C(=O)[C@H](CCCN=C(N)N)NC(=O)[C@@H]1CNC(=O)[C@H](CCCN=C(N)N)NC(=O)[C@H](CCCN=C(N)N)NC(=O)[C@H](NC(=O)[C@H](Cc2ccccc2)NC(=O)CNC(=O)CNC(=O)[C@@H](N)Cc2ccc(O)cc2)CC(=O)N1)C(=O)N[C@@H](CCCCN)C(=O)O

IC50 (Cavia porcellus): 530 nM
Compound: CC(C)C[C@H](NC(=O)[C@H](CCCCN)NC(=O)[C@@H]1CCCN1C(=O)[C@H](CCCN=C(N)N)NC(=O)[C@@H]1CCCNC(=O)[C@H](CCCN=C(N)N)NC(=O)[C@H](CCCN=C(N)N)NC(=O)[C@H](NC(=O)[C@H](Cc2ccccc2)NC(=O)CNC(=O)CNC(=O)[C@@H](N)Cc2ccc(O)cc2)CC(=O)N1)C(=O)N[C@@H](CCCCN)C(=O)O

Compound: CC(C)C[C@H](NC(=O)[C@H](CCCCN)NC(=O)[C@@H]1CCCN1C(=O)[C@H](CCCNC(=N)N)NC(=O)[C@H](CN)NC(=O)[C@H](CCCNC(=N)N)NC(=O)[C@H](CCCNC(=N)N)NC(=O)[C@@H](CC(=O)O)NC(=O)[C@H](Cc1ccccc1)NC(=O)CNC(=O)CNC(=O)[C@@H](N)Cc1ccc(O)cc1)C(=O)N[C@@H](CCCCN)C(N)=O
Ki (Mu-type opioid receptor [1]): 8.3 nM
Ki [2]: 1600 nM
Ki [3]: 20 nM
